Assay results taken from patent US6255497A, “Method for the inhibition of ALDH-I useful in the treatment of alcohol dependence or alcohol abuse” (priority 1998, dated 2001).

Tests used:
rats = settings: subcutaneous in propylene glycol; cited from earlier work
ALDH-I = molecular target: T1, ALDH-I (Homo sapiens, UniProt P05091); test: Inhibition kinetics of ALDH-I, initial velocity method, formaldehyde as substrate; settings: from Ki values of Table II
T1 sequence (P05091 18-517): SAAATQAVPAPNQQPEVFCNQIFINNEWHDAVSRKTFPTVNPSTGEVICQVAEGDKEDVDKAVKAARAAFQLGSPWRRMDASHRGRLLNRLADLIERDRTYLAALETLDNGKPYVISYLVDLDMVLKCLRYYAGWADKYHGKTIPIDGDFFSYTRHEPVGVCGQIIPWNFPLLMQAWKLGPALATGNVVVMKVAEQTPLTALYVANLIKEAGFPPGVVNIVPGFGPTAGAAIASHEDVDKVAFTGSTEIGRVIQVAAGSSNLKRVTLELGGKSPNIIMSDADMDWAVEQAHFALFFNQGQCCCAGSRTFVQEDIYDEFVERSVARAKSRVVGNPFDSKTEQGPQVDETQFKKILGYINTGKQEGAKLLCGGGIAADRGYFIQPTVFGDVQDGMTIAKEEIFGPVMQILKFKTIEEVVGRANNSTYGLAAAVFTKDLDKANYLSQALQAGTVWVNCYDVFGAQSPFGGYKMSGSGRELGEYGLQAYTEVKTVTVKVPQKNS
Experimental: The kinetic data were analyzed by standard graphical methods.

ALDH-II = molecular target: T2, ALDH-II (Homo sapiens, UniProt P00352); test: Competitive inhibition of ALDH-II with acetaldehyde as substrate; format: biochemical; design: A liver sample (50 g wet weight) with the usual Caucasian ALDH phenotype (both ALDH-I and ALDH-II present); from tissue; host or cells: human liver (autopsy), purified by CM-52, AMP-agarose and DEAE HPLC
T2 sequence (P00352 1-501): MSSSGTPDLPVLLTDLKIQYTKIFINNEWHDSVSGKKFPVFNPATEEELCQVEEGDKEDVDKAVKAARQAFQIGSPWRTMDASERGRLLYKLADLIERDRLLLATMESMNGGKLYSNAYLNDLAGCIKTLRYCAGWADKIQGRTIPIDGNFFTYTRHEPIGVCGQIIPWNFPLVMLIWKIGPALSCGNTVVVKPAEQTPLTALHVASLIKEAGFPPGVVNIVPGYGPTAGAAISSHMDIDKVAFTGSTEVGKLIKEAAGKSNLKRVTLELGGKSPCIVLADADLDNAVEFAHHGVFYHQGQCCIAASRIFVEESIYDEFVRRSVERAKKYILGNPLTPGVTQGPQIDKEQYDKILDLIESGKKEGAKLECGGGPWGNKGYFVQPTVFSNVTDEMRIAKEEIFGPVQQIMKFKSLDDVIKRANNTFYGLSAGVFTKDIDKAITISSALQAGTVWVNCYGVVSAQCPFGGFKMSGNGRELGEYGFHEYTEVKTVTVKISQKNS

ADH isozymes = test: Inhibition of ADH; format: biochemical, human
[1] = Plasma drug concentration versus time after a single 10 mg dose; format: in vivo; settings: golden hamster
Source text: Five hours later the plasma concentrations of both inhibitors were still above […], far above their competitive inhibition constants for ALDH-I.

[2] = Solubility in water / aqueous media
golden hamsters = test: Dose effect on free choice ethanol intake in golden hamsters, i.p.; format: in vivo, golden hamster; settings: i.p.
Source text: It is common practice in quantitative drug studies with rodents to use intraperitoneal (i.p.) administration to deliver drug doses accurately (Goodman and Gilman, 1975, The Pharmacological Basis of Therapeutics, 5th ed., Macmillan, N.Y., p. 8). In particular, this method avoids variability introduced by technical difficulties of oral administration via feeding (full versus empty stomach, etc.), variations in drug transport in the gastrointestinal tract (variations in intestinal fauna and flora, individual variations in absorption rate expected of outbred animals, etc.) and other factors. […] As a control 1 ml of sterile saline was injected i.p. daily during the baseline period (typically 7-9 days) that establishes drinking preference without the drug. Saline injection i.p. had no effect on the drinking behavior of golden hamsters. Ethanol was provided as a 20% solution. Hamsters could be used more than once (but were not used more than three times) in a cycle of baseline saline injections followed by drug injections, each cycle with the drug at a different dose.
The response to daidzin treatment was computed as:
% Response=(Vo -Vd)×100/Vo

mice = settings: subcutaneous in propylene glycol; cited from earlier work

O=c1c(-c2ccc(O)cc2)coc2cc(O[C@@H]3O[C@H](CO)[C@@H](O)[C@H](O)[C@H]3O)ccc12 [Daidzin, 7-glucoside of daidzein]
antifebrile (hypothermic) effect (rats): no antifebrile (hypothermic) effect
more effective inhibition of human ALDH-I than of human ALDH-II (ALDH-I): 500 fold
Ki (ALDH-II): 28 µM
ADH inhibition (ADH isozymes): inhibits the second but not the first step in human ethanol metabolism
time to maximal plasma concentration after injection ([1]; i.p.): within about an hour after injection
Cmax ([1]; plasma, ip, read-out: maximal plasma concentration): 6 µM
solubility in polyethylene glycol 400 ([2]; PEG 400): highly soluble
solubility in glycerol ([2]; glycerol): highly soluble
suppression of alcohol intake at 5 mg/day (golden hamsters; 20% ethanol, 5 mg/day): 20%
suppression of alcohol intake at 10 mg/day (golden hamsters; 20% ethanol, 10 mg/day): 50%
suppression of alcohol intake at 30 mg/day (golden hamsters; 20% ethanol, 30 mg/day): 80%
EC50 or half-maximal response, suppression of alcohol intake (golden hamsters; golden hamsters): 10 mg/day
spasmolytic effect (mice): no spasmolytic effect
